Experiments:
[1] = biological target: T1, ENaC (Epithelial Sodium Channel) (Mus musculus, UniProt Q61180+Q9WU38+Q9WU39); experiment: Ussing Chamber assay: inhibition of amiloride sensitive short circuit current in M-1 cells; type: cell-based; settings: Mouse kidney M-1 cells on transwell filters, compound added to apical solution, 37° C.
T1 construct: Mouse kidney M-1 cells were cultivated in DMEM containing 5% FCS and 5 μM dexamethasone; endogenous in cells; host or cells: mouse kidney M-1 cells
T1 sequence (Q61180 1-699): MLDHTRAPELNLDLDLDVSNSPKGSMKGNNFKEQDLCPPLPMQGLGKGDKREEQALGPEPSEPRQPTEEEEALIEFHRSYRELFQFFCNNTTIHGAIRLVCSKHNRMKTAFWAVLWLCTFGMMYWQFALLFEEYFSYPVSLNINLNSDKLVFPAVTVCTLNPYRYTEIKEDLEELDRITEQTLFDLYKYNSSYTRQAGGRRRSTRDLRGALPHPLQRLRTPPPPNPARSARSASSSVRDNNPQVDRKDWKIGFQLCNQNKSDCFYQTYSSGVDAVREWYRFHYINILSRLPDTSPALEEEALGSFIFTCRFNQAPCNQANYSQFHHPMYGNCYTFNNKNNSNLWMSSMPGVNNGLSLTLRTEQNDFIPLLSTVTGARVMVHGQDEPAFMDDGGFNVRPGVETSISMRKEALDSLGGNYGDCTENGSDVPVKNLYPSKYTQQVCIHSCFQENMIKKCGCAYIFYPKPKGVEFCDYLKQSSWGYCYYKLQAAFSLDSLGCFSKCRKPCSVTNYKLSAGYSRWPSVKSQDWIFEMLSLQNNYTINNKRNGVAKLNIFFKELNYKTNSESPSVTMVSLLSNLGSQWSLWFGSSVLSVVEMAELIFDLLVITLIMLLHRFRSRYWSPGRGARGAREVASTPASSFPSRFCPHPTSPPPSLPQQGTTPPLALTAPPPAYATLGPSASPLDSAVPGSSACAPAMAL
T1 sequence (Q9WU38 1-638): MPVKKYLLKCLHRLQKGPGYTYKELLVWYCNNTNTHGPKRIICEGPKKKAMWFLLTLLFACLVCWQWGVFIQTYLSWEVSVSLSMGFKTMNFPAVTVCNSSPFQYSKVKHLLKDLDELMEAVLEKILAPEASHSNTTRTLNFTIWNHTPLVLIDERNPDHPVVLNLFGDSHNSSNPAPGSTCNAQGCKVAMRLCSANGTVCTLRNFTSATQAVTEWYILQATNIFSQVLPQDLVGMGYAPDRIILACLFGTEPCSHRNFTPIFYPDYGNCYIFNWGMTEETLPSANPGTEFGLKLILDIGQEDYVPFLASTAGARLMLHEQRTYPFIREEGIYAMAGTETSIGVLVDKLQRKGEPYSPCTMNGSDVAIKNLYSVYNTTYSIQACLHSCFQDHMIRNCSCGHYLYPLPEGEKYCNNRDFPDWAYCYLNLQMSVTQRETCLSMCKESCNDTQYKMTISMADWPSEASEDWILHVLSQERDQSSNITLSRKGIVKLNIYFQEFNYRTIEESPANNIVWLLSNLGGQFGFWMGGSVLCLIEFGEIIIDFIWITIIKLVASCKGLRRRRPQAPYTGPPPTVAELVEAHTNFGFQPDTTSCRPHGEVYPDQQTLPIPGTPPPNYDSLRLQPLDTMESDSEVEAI
T1 sequence (Q9WU39 1-655): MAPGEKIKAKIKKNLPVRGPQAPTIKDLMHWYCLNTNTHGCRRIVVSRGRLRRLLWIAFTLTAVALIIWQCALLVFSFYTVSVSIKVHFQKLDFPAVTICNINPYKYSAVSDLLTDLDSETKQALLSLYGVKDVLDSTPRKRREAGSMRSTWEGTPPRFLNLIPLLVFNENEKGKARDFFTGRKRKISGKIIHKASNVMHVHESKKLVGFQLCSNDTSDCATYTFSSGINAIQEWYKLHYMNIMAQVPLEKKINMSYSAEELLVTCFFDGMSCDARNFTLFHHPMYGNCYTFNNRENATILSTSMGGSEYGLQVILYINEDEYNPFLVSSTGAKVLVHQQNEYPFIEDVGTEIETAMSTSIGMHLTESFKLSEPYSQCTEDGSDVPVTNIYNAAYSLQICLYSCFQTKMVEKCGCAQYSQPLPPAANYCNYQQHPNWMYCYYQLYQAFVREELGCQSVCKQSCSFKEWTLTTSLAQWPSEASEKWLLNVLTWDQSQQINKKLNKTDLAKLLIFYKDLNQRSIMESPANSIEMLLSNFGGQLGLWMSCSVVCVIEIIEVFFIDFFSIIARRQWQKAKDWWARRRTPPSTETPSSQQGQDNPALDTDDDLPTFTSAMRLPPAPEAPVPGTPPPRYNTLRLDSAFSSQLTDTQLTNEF
Description: Mouse kidney M-1 cells were cultivated in DMEM containing 5% FCS and 5 μM dexamethasone for 10 to 12 days on polyester transwell filters. Filters were inserted into a teflon-coated well-plate which fit into the ussing chamber system. Prior to measurement the medium of M-1 cells was replaced with Caco-2 transport buffer (Invitrogen, Germany). During measurements, the Ussing chamber temperature was kept at 37° C. Short circuit currents (I_sc) were measured in the voltage-clamp mode with the software package Lab View for data acquisition and analysis. The transepithelial electrical resistance (TEER) was determined by the application of voltage steps of ±5 mV every 5 sec. Compounds were administered at a final concentration of 3 μM or at increasing concentrations (1-3-10 μM) to the apical solution. At the end of each experiment the amiloride sensitive I_SC was measured by adding 3 μM amiloride to the apical compartment. Results are expressed as inhibition in percent of the amiloride effect or as IC50.
With the example compounds given above, the following IC50 values were determined in the Ussing Chamber assay: […]

[2] = Permeability in CALU-3 cells; type: in vitro ADME; settings: human, CALU-3 cell monolayers, pH 7.4, 37° C., 10 μM compound; for Papp A→B at 90 min, 10 μM: apical-to-basal; for Papp B→A at 90 min, 10 μM: basal-to-apical
Description: Permeability in CALU-3 Cells:
Permeability measurements across polarized, confluent CALU-3 cell monolayers grown on permeable filter supports are used to provide information on the potential of a compound to pass the lung epithelium. Apparent permeability coefficients (Papp) of the compounds across the CALU-3 cell monolayers are measured (pH 7.4, 37° C.) in apical-to-basal (AB) and basal-to-apical (BA) transport direction.
CALU-3 cells (1-2×10^5 cells/1 cm^2 area) are seeded on filter inserts (Costar transwell polycarbonate filters, 0.4 μm pore size) and cultured (for 10-12 days DMEM) until tight monolayers are formed. Compounds of interest are dissolved in appropriate solvent (DMSO, 10 mM stock solution). Stock solutions are diluted with HTP-4 buffer (128.13 mM NaCl, 5.36 mM KCl, 1 mM MgSO4, 1.8 mM CaCl2, 4.17 mM NaHCO3, 1.19 mM Na2HPO4×7H2O, 0.41 mM NaH2PO4×H2O, 15 mM HEPES, 20 mM glucose, 0.25% BSA, pH 7.4) to prepare the transport solutions (10 μM compound, final DMSO<=0.5%). The transport solution (TL) is applied to the apical or basolateral donor side for measuring A-B or B-A permeability (3 filter replicates), respectively. The receiver side contains the same buffer as the donor side. After 30 min of accommodation, samples are collected at the start t0=0 min and at the end of the experiment tn=90 min from the donor and at 0, 30, 60, and 90 min also from the receiver chamber. Volume removed is replenished by HTP-4 buffer. The compound concentration in the samples is measured by HPLC-MS/MS or scintillation counting. The permeability coefficient (Papp) and efflux ratio are calculated according to: Papp [cm/s]=(concentration receiver [nM]*volume receiver [mL]/time interval [sec])*(1/filter area)*(1/donor concentration [nM])
With example compounds given above, the following permeability values were determined in the CALU-3 cells assay: […]

| IC50 [1] [nM] | Papp A→B at 90 min, 10 μM [2] [nm/s] | Papp B→A at 90 min, 10 μM [2] [nm/s] | SMILES |
| --- | --- | --- | --- |
| 3 | – | – | CC[n+]1c(CNC(=O)c2nc(Cl)c(N)nc2N)n(CC2CCN(C(=O)COCCOC)CC2)c2cc([O-])ccc21 [Example 6.1] |
| 10 | – | – | CCNC(=O)COc1ccc2c(c1)n(C1CCN(C(C)=O)CC1)c(CNC(=O)c1nc(Cl)c(N)nc1N)[n+]2CC [Example 3.1] |
| 1 | 5 | 3 | CCn1c(CNC(=O)c2nc(Cl)c(N)nc2N)[n+](CCOCCOCCO)c2ccc(O)cc21 [Example 1.2] |
| 31 | – | – | CCn1c(CNC(=O)c2nc(Cl)c(N)nc2N)[n+](CCCC#N)c2ccc(OCCCP(=O)(O)O)cc21 [Example 4.1] |
| 1 | 13 | 2 | CCn1c(CNC(=O)c2nc(Br)c(N)nc2N)[n+](CCOCCOCCO)c2ccc(O)cc21.O=C([O-])C(F)(F)F [Example 2.1] |
| 13 | – | – | CCn1c(CNC(=O)c2nc(Cl)c(N)nc2N)[n+](CC2CCOCC2)c2cc(Cl)c(N(CCO)CCO)cc21 [Example 1.1] |

| SMILES | IC50 [1] [nM] | Papp A→B at 90 min, 10 μM [2] [nm/s] | Papp B→A at 90 min, 10 μM [2] [nm/s] |
| --- | --- | --- | --- |
| CCOP(=O)(O)CCCOc1ccc2c(c1)n(CC)c(CNC(=O)c1nc(Cl)c(N)nc1N)[n+]2CC1CCOCC1 [Example 5.1] | 8 | – | – |
| C=CC[n+]1c(CNC(=O)c2nc(Br)c(N)nc2N)n(CC)c2cc(OCCCP(=O)(OCC)OCC)ccc21 [Example 2.2] | 2 | – | – |

From patent publication US9126985B2, “Tetra- and pentasubstituted benzimidazolium compounds” (Boehringer Ingelheim International GmbH, priority 2013, dated 2015)
